# What was measured:
# [1] = tested on: kainate-induced cortical focal seizures; assay: Local cerebral glucose metabolism during kainate-induced cortical focal seizures; assay type: in vivo, rat; design: key to Change in local cerebral glucose metabolism rate: →: no change; →↓: decreased in a low degree; ↓: decreased in a moderate degree; ↓↓: decreased in a high degree; conditions: for Change in local cerebral glucose metabolism rate: 100 mg/kg i.v.
# Description: [Method] A cannula was set in the left sensorimotor area of rats, and kinic acid was injected so as to induce seizures through the same manner as described in the experiment of I-1. Subsequently, a nefiracetam solution (100 mg/kg) was intravenously injected into each rat. After 60 minutes, [^14C] deoxyglucose was intravenously injected, and autoradiograms were produced through the same procedure as described in the experiment of I-2. A glucose utilization rate of each intracerabral structure was compared with that of the control group.
# [2] = tested on: fully amygdala kindled rats; assay: Seizures in fully amygdala kindled rats (GST stimulation); assay type: in vivo, rat; conditions: for Change of ADD (%): afterdischarge duration before administration = 100; for Change of MSD (%): motor seizure duration before administration = 100
# Description: [Method for preparing a kindling model] Male Wistar rats (weight: 200-250 g, Tokyo Jikken Dobutsu) were used, and pentobarbital (50 mg/kg, Dinabot) and ketamine (50 mg/kg, Sankyo Co., Ltd.) were used as anesthetic agents.
# A dose-response of nefiracetam (15-180 mg/kg) with respect to a kindling seizure induced GTS stimulation intensity was evaluated in terms of the following parameters: seizure stage, and afterdischarge duration at the sitimulated amygdala and motor seizure duration.
# In accordance with the method of Racine et al. (Modification of seizure activity by electrical stimulation: II motor seizure. Electroencephalography Clin. Neurophysiol. 1972. 32: 281-294), seizures were classified into the following five stages: stage 1 (chewing); stage 2 (head nodding); stage 3 (forelimb clonus); stage 4 (rearing); and stage 5 (rearing and falling).
# Motor seizure duration (seconds) was represented by the total duration of stages 3 through 5. Stage 1 or Stage 2 is a seizure symptom of the limbic system, and Stage 3, 4, or 5 is regarded a motor seizure (Sato, M., Racine, R. J., McIntyre, D. C., Kindling: basic mechanisms and clinical validity, Electroencephalography Clin. Neurophysiol. 1990, 76: 459-472).
# Afterdischarge duration (seconds) was recorded by use of an electrode for recording, and was represented by the seizure-discharge duration shown in a electroencephalogram, which is induced by a kindling stimulation. Nefiracetam was dissolved into a solvent (0.5% carboxymethyl cellulose) and the solution was administered orally 90 minutes before GST stimulation, wherein the amount of administered nefiracetam is classified into several stages within a range of 15-180 mg/kg.
# [Method] The rats used in this Example were of the same type in terms of the source of purchase, body weight, and age (week). For each rat, in the same manner as in of Example 1, there were performed anesthetization, setting of an electrode on the amygdala, fixation of the electrode at the cranial bone, and a kindling stimulation (50 Hz, sine wave).
# For non-administered rats and nefiracetam-administered rats (120 mg/kg), the effect of the administration was evaluated when GST stimulation intensity was increased by a factor of two (GST 2) or three (GST 3). The effect of 120 mg/kg of nefiracetam on kindling seizures induced by one-fold, two-fold, and three-fold GTS stimulation was evaluated in terms of the following parameters: seizure stage, motor seizure duration, and afterdischarge duration.
smiles,measurement,setting,value
"Cc1cccc(C)c1NC(=O)CN1CCCC1=O [nefiracetam, N-(2,6-dimethylphenyl)-2-(2-oxo-1-pyrrolidinyl)acetamide]","Hypermetabolism in non-focal sensorimotor area, caudatum-putamen, thalamus and hippocampus in both sides",[1]; 100 mg/kg i.v. during seizures,hypermetabolism is suppressed remarkably
same,Change in local cerebral glucose metabolism rate,"[1]; Amygdala, focal side",→↓
same,Change in local cerebral glucose metabolism rate,"[1]; Amygdala, non-focal side",→↓
same,Change in local cerebral glucose metabolism rate,"[1]; Brain stem reticular formation, focal side",→↓
same,Change in local cerebral glucose metabolism rate,"[1]; Brain stem reticular formation, non-focal side",→↓
same,Change in local cerebral glucose metabolism rate,"[1]; Candatum-putamen, focal side",↓
same,Change in local cerebral glucose metabolism rate,"[1]; Candatum-putamen, non-focal side",↓↓
same,Change in local cerebral glucose metabolism rate,"[1]; Cerebellar cortex, focal side",→
same,Change in local cerebral glucose metabolism rate,"[1]; Cerebellar cortex, non-focal side",→
same,Change in local cerebral glucose metabolism rate,"[1]; Corpus callosum, focal side",→
same,Change in local cerebral glucose metabolism rate,"[1]; Corpus callosum, non-focal side",→
same,Change in local cerebral glucose metabolism rate,"[1]; Frontal lobe cortex, focal side",→↓
same,Change in local cerebral glucose metabolism rate,"[1]; Frontal lobe cortex, non-focal side",↓
same,Change in local cerebral glucose metabolism rate,"[1]; Hypothalamaus, focal side",↓
same,Change in local cerebral glucose metabolism rate,"[1]; Hypothalamaus, non-focal side",↓
same,Change in local cerebral glucose metabolism rate,"[1]; Occipital lobe cortex, focal side",→↓
same,Change in local cerebral glucose metabolism rate,"[1]; Occipital lobe cortex, non-focal side",↓
same,Change in local cerebral glucose metabolism rate,"[1]; Parietal lobe cortex, focal side",↓
same,Change in local cerebral glucose metabolism rate,"[1]; Parietal lobe cortex, non-focal side",↓↓
same,Change in local cerebral glucose metabolism rate,"[1]; Sensorimotor area cortex, focal side",→↓
same,Change in local cerebral glucose metabolism rate,"[1]; Sensorimotor area cortex, non-focal side",↓
same,Change in local cerebral glucose metabolism rate,"[1]; Septal area, focal side",→↓
same,Change in local cerebral glucose metabolism rate,"[1]; Septal area, non-focal side",→↓
same,Change in local cerebral glucose metabolism rate,"[1]; Substantia nigra, focal side",→↓
same,Change in local cerebral glucose metabolism rate,"[1]; Substantia nigra, non-focal side",→↓
same,Change in local cerebral glucose metabolism rate,"[1]; Teniporal lobe cortex, focal side",→↓
same,Change in local cerebral glucose metabolism rate,"[1]; Teniporal lobe cortex, non-focal side",↓
same,Change in local cerebral glucose metabolism rate,"[1]; Thalamus, focal side",→↓
same,Change in local cerebral glucose metabolism rate,"[1]; Thalamus, non-focal side",↓
same,Change in local cerebral glucose metabolism rate,"[1]; hippocampus, focal side",↓↓
same,Change in local cerebral glucose metabolism rate,"[1]; hippocampus, non-focal side",↓↓
same,Change of stage (%),"[2]; 15 mg/kg p.o. 90 min before GST stimulation, seizure stage before administration = 100",80.0%
same,Change of ADD (%),[2]; 15 mg/kg p.o.,81.7%
same,Change of stage (%),"[2]; 30 mg/kg p.o. 90 min before GST stimulation, seizure stage before administration = 100",100.0%
same,Change of ADD (%),[2]; 30 mg/kg p.o.,99.9%
same,Change of stage (%),"[2]; 60 mg/kg p.o. 90 min before GST stimulation, seizure stage before administration = 100",80.0%
same,Change of ADD (%),[2]; 60 mg/kg p.o.,83.9%
same,Change of stage (%),"[2]; 90 mg/kg p.o. 90 min before GST stimulation, seizure stage before administration = 100",76.0%
same,Change of ADD (%),[2]; 90 mg/kg p.o.,82.3%
same,Change of stage (%),"[2]; 120 mg/kg p.o. 90 min before GST stimulation, seizure stage before administration = 100",13.3%
same,Change of ADD (%),[2]; 120 mg/kg p.o.,25.0%
same,Effect on afterdischarge duration,"[2]; 120 mg/kg, 3-times-GST stimulation intensity",the afterdischarge duration was restored
same,Change of stage (%),"[2]; 120 mg/kg, GST intensity 1-fold, before administration = 100",16.7%
same,Change of MSD (%),"[2]; 120 mg/kg, GST intensity 1-fold",11.1%
same,Change of stage (%),"[2]; 120 mg/kg, GST intensity 2-fold, before administration = 100",14.7%
same,Change of MSD (%),"[2]; 120 mg/kg, GST intensity 2-fold",15.2%
same,Change of stage (%),"[2]; 120 mg/kg, GST intensity 3-fold, before administration = 100",52.0%
same,Change of MSD (%),"[2]; 120 mg/kg, GST intensity 3-fold",43.8%
same,Effect on afterdischarge duration,"[2]; 120 mg/kg, one-fold GST stimulation intensity",significant and strong inhibition
same,Effect on afterdischarge duration,"[2]; 120 mg/kg, two-fold GST stimulation intensity",an effect on afterdischarge duration was reduced
same,Change of stage (%),"[2]; 180 mg/kg p.o. 90 min before GST stimulation, seizure stage before administration = 100",36.0%
same,Change of ADD (%),[2]; 180 mg/kg p.o.,24.8%
same,"Effect on seizure stage, motor seizure duration and afterdischarge duration","[2]; 15-180 mg/kg p.o., GST stimulation",dose-dependent inhibition
same,ED50 (effect on seizure stage),"[2]; regression curve by least-squares method, p.o., fully kindled rats",114 mg/kg

# — patent publication US6365621B1, “Remedies or preventives for intractable epilepsy” (Pharmaceutical Co., Ltd., priority 1998, dated 2002)
